Assays:
[1] = test system: patients with DSM-IV schizophrenia; assay: Phase 2 double-blind, randomized, placebo-controlled clinical study of CYR-101; assay type: in vivo, human
Procedure: A study was conducted using the compound of formula II, to examine the efficacy on schizophrenia and treatment of symptoms of schizophrenia. The study was a multi-center, inpatient and ambulatory, phase 2, double-blind, randomized, placebo-controlled proof of concept study of the compound of formula II in patients with DSM-IV schizophrenia. The study used 21 centers across three different countries. The study was designed to test the therapeutic efficacy of the compound of formula II on all dimensions of schizophrenic disease (E.g., positive, negative, and general symptoms, cognition, sleep, mood and anxiety). The study also examined the safety of the administered doses of the compound of formula II (also referred to herein as CYR-101), including heart repolarization (i.e., QT interval), weight change, adverse events, prolactin, and extrapyramidal symptoms). The study was conducted for a time period of three months. […] In one aspect of the study, the dosage of compound was titrated up to 32 mg b.i.d. The resulting data was analyzed one of three ways: 1.) Safety set; 2.) Full analysis set, with each patient having at least one PANSS evaluation after treatment initiation included in the efficacy analysis. The LOCF method is used; and 3.) Per protocol set, where for certain analyses, all patients having completed three months of treatment are included. ANCOVA followed by a contrast analysis at each time point were applied and in some cases, a non-parametric Wilcoxon test was used.

sigma 2 receptor = sigma 2 receptor (Homo sapiens, UniProt Q5BJF2); settings: cited from earlier work
5-HT2A = 5-HT2A (Homo sapiens, UniProt P28223); settings: cited from earlier work
dopamine = settings: cited from earlier work

Sequence of sigma 2 receptor (Q5BJF2 whole entry, species assumed): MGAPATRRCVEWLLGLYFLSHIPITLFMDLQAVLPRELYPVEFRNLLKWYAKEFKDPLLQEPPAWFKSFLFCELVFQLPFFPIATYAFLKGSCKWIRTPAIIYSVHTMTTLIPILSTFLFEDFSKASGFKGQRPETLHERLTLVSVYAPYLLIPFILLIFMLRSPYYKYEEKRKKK
Sequence of 5-HT2A (P28223 whole entry, species assumed): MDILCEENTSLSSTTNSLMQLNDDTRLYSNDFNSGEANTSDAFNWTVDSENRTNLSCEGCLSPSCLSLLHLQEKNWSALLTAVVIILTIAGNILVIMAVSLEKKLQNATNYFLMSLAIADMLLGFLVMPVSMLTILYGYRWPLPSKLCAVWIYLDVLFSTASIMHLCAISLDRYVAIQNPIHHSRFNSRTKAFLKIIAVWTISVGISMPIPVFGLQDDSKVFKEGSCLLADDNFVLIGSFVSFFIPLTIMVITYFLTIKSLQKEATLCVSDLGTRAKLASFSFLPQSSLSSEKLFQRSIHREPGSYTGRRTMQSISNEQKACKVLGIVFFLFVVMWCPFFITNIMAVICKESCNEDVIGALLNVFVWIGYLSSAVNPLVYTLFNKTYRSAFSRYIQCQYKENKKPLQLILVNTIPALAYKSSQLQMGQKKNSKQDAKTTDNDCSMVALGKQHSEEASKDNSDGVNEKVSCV

## O=C(CN1CCC(CN2Cc3ccccc3C2=O)CC1)c1ccc(F)cc1 [CYR-101, 2-[[1-[2-(4-Fluorophenyl)-2-oxoethyl]piperidin-4-yl]methyl]isoindolin-1-one]
[1]; doses up to 32 mg b.i.d., clinically acceptable limits E.g. 10-15 milliseconds or less
  QT interval: did not cross clinically acceptable limits
[1]; full analysis set (FAS)
  cognitive performances assessed by BACS, versus placebo: no differences between the placebo group and the CYR-101 group, except for the Token motor task
[1]; per protocol set (PPC) at D84, Token motor task, list learning task, verbal fluency, processing speed, not statistically significant
  cognitive performances assessed by BACS, versus placebo: slight difference in favour of CYR-101 group
[1]; schizophrenic patients
  duration of continued improvement in both positive and negative symptoms: continued for more than twelve weeks
  effect on cognition: positive effect on cognition
  mood, anxiety and sleep: some improvements of mood, anxiety and sleep
[1]; schizophrenic patients, PANSS
  improvement in positive symptoms: did not improve until after the first four weeks of treatment
[1]; schizophrenic patients, PANSS, course of treatment
  improvement in negative symptoms: observed immediately, and continued through the course of treatment
[1]; schizophrenic patients, three months, titrated up to 32 mg b.i.d.
  emergence or worsening of extrapyramidal symptoms, CYR-101 versus placebo: no significant difference
[1]; three SAE in total, two in placebo group, unlikely related to CYR-101
  number of SAE in the active treatment group: one
Sigma 2 receptor; Table 3 of U.S. Pat. No. 7,166,617, read-out: affinity for the sigma 2 receptor
  Ki: 0.013 µM
Sigma 2 receptor
  mode of action at sigma 2: antagonist
  sigma 2 selectivity of receptor binding: sigma 2-selective receptor binding
5-HT2A
  mode of action at 5-HT2A: antagonist
dopamine
  dopamine binding: devoid of dopamine binding properties

— patent US20250228838A1, “METHODS OF USE OF CYCLIC AMIDE DERIVATIVES TO TREAT SIGMA RECEPTOR MEDIATED DISORDERS” (Minerva Neurosciences, Inc., priority 2010, published 2025)
